Results on two compounds are retold here after patent publication US6372776B1, “Crystalline(−)-3R,4R-trans-7-methoxy-2,2-dimethyl-3-phenyl-4-{4-[2-(pyrrolidin-1-yl)ethoxy]phenyl}chromane, hydrogen maleate” (Novo Nordisk A/S, priority 1997, dated 2002).

The nature of series [1]: solubility in water. The format is physicochemical.
Series [2] in a line: bioavailability.
Series [3] is described as follows: hygroscopicity. The format is physicochemical.
Series [4] is described as follows: stability characteristics.

As to `COc1ccc2c(c1)OC(C)(C)C(c1ccccc1)[C@@H]2c1ccc(OCCN2CCCC2)cc1` (single isomer, unassigned; (-)) [free base, (−)-3R,4R-trans-7-methoxy-2,2-dimethyl-3-phenyl-4-{4-[2-(pyrrolidin-1-yl)ethoxy]phenyl}chromane], in series [1], the solubility in water entry is “very poor”.

Turning to “(−)-3R,4R-trans-7-methoxy-2,2-dimethyl-3-phenyl-4-{4-[2-(pyrrolidin-1-yl)ethoxy]phenyl}chromane, hydrogen maleate [hydrogen maleate salt]”, the bioavailability result in series [2] is reported as “good”. For the same compound, in series [3], the hygroscopicity entry is listed as “non-hygroscopic”. Also, in series [4], the stability characteristics entry is given as “good”.
